Assays:
[1] = system: CD8+ T cells; assay: In vitro immunogenicity of HLA-A*24 peptides (CD8+ T-cell priming with aAPCs, multimer staining); type: cell-based, human
Procedure: (§1) In order to obtain information regarding the immunogenicity of the TUMAPs of the present invention, the inventors performed investigations using an in vitro T-cell priming assay based on repeated stimulations of CD8+ T cells with artificial antigen presenting cells (aAPCs) loaded with peptide/MHC complexes and anti-CD28 antibody.
(§2) Generation of pMHC/anti-CD28 coated beads, T-cell stimulations and readout was performed in a highly defined in vitro system using four different pMHC molecules per stimulation condition and 8 different pMHC molecules per readout condition.
(§3) The purified co-stimulatory mouse IgG2a anti human CD28 Ab 9.3 (Jung et al., 1987) was chemically biotinylated using Sulfo-N-hydroxysuccinimidobiotin as recommended by the manufacturer (Perbio, Bonn, Germany). Beads used were 5.6 μm diameter streptavidin coated polystyrene particles (Bangs Laboratories, Illinois, USA).
(§4) 800.000 beads/200 μl were coated in 96-well plates in the presence of 4×12.5 ng different biotin-pMHC, washed and 600 ng biotin anti-CD28 were added subsequently in a volume of 200 μl. Stimulations were initiated in 96-well plates by co-incubating 1×10^6 CD8+ T cells with 2×10^5 washed coated beads in 200 μl TCM supplemented with 5 ng/ml IL-12 (PromoCell) for 3 days at 37° C. Half of the medium was then exchanged by fresh TCM supplemented with 80 U/ml IL-2 and incubating was continued for 4 days at 37° C. This stimulation cycle was performed for a total of three times. For the pMHC multimer readout using 8 different pMHC molecules per condition, a two-dimensional combinatorial coding approach was used as previously described (Andersen et al., 2012) with minor modifications encompassing coupling to 5 different fluorochromes. Finally, multimeric analyses were performed by staining the cells with Live/dead near IR dye (Invitrogen, Karlsruhe, Germany), CD8-FITC antibody clone SK1 (BD, Heidelberg, Germany) and fluorescent pMHC multimers. For analysis, a BD LSRII SORP cytometer equipped with appropriate lasers and filters was used. Peptide specific cells were calculated as percentage of total CD8+ cells. Evaluation of multimeric analysis was done using the FlowJo software (Tree Star, Oregon, USA). In vitro priming of specific multimer+CD8+ lymphocytes was detected by comparing to negative control stimulations.
Exemplary flow cytometry results after TUMAP-specific multimer staining for 3 peptides of the invention are shown in FIGS. 3A-3E together with corresponding negative controls.

[2] = system: CD8+ T cells; assay: In vitro immunogenicity of HLA-A*02 peptides (CD8+ T-cell priming with aAPCs, multimer staining); type: cell-based, human
Excerpt: as §1
In order to perform in vitro stimulations by artificial antigen presenting cells loaded with peptide-MHC complex (pMHC) and anti-CD28 antibody, the inventors first isolated CD8+ T cells from fresh HLA-A*02 leukapheresis products via positive selection using CD8 microbeads (Miltenyi Biotec, Bergisch-Gladbach, Germany) of healthy donors obtained from the University clinics Mannheim, Germany, after informed consent.
PBMCs and isolated CD8+ lymphocytes were incubated in T-cell medium (TCM) until use consisting of RPMI-Glutamax (Invitrogen, Karlsruhe, Germany) supplemented with 10% heat inactivated human AB serum (PAN-Biotech, Aidenbach, Germany), 100 U/ml Penicillin/100 μg/ml Streptomycin (Cambrex, Cologne, Germany), 1 mM sodium pyruvate (CC Pro, Oberdorla, Germany), 20 μg/ml Gentamycin (Cambrex). 2.5 ng/ml IL-7 (PromoCell, Heidelberg, Germany) and 10 U/ml IL-2 (Novartis Pharma, Nurnberg, Germany) were also added to the TCM at this step.
as §2, §3, §4

ABCA13-003 (EYLPEFLHTF; listed as Homo sapiens)
in vitro immunogenicity: donors [1]: ++ (20%-49% = ++) | in vitro immunogenicity: wells [1]: + (<20% = +)

ABCC1-001 (VYVTIDENNIL; listed as Homo sapiens)
in vitro immunogenicity: donors [1]: ++ (20%-49% = ++) | in vitro immunogenicity: wells [1]: + (<20% = +)

AHD-001 (EYSDVLAKLAF; listed as Homo sapiens)
in vitro immunogenicity: donors [1]: +++ (50%-69% = +++) | in vitro immunogenicity: wells [1]: + (<20% = +)

AIFM2-001 (AYKPGALTF; listed as Homo sapiens)
in vitro immunogenicity: donors [1]: ++ (20%-49% = ++) | in vitro immunogenicity: wells [1]: + (<20% = +)

C6orf132-001 (RYGSPINTF; listed as Homo sapiens)
in vitro immunogenicity: donors [1]: +++ (50%-69% = +++) | in vitro immunogenicity: wells [1]: + (<20% = +)

COL6A3-001 (SYLQAANAL; listed as Homo sapiens)
in vitro immunogenicity: donors [1]: ++ (20%-49% = ++) | in vitro immunogenicity: wells [1]: + (<20% = +)

COL6A3-012 (RYPPPVREF; listed as Homo sapiens)
in vitro immunogenicity: donors [1]: ++++ (>= 70% = ++++) | in vitro immunogenicity: wells [1]: ++ (20%-49% = ++)

COL6A3-013 (EYQPEMLEKF; listed as Homo sapiens)
in vitro immunogenicity: donors [1]: + (<20% = +) | in vitro immunogenicity: wells [1]: + (<20% = +)

COL12A1-003 (SYSIGIANF; listed as Homo sapiens)
in vitro immunogenicity: donors [1]: ++++ (>= 70% = ++++) | in vitro immunogenicity: wells [1]: + (<20% = +)

COLEC12-001 (IYAGQWNDF; listed as Homo sapiens)
in vitro immunogenicity: donors [1]: +++ (50%-69% = +++) | in vitro immunogenicity: wells [1]: + (<20% = +)

DCSTA-001 (KYIEAIQWI; listed as Homo sapiens)
in vitro immunogenicity: donors [1]: ++++ (>= 70% = ++++) | in vitro immunogenicity: wells [1]: ++ (20%-49% = ++)

DDX5-007 (NYTNGSFGSNF; listed as Homo sapiens)
in vitro immunogenicity: donors [1]: + (<20% = +) | in vitro immunogenicity: wells [1]: + (<20% = +)

DYR-001 (VYTZIQSRF; listed as Homo sapiens)
in vitro immunogenicity: donors [1]: ++ (20%-49% = ++) | in vitro immunogenicity: wells [1]: + (<20% = +)

FAM83A-001 (PFLQASPHF; listed as Homo sapiens)
in vitro immunogenicity: donors [1]: ++++ (>= 70% = ++++) | in vitro immunogenicity: wells [1]: ++ (20%-49% = ++)

MCM5-001 (ALSGTLSGV; listed as Homo sapiens)
in vitro immunogenicity: donors [2]: ++++ (>= 70% = ++++) | in vitro immunogenicity: wells [2]: + (<20% = +)

MXRA5-001 (TLSSIKVEV; listed as Homo sapiens)
in vitro immunogenicity: donors [2]: ++++ (>= 70% = ++++) | in vitro immunogenicity: wells [2]: + (<20% = +)

MXRA5-002 (GLTDNIHLV; listed as Homo sapiens)
in vitro immunogenicity: donors [2]: ++++ (>= 70% = ++++) | in vitro immunogenicity: wells [2]: + (<20% = +)

NLIEKSIYL (listed as Homo sapiens) [SEQ ID No. 141]
in vitro immunogenicity: donors [2]: ++++ (>= 70% = ++++) | in vitro immunogenicity: wells [2]: + (<20% = +)

PCNXL3-001 (GVLENIFGV; listed as Homo sapiens)
in vitro immunogenicity: donors [2]: +++ (50%-69% = +++) | in vitro immunogenicity: wells [2]: + (<20% = +)

PLT-001 (ALFGALFLA; listed as Homo sapiens)
in vitro immunogenicity: donors [2]: ++ (20%-49% = ++) | in vitro immunogenicity: wells [2]: + (<20% = +)

PRPF3-001 (AMGIAPPKV; listed as Homo sapiens)
in vitro immunogenicity: donors [2]: ++++ (>= 70% = ++++) | in vitro immunogenicity: wells [2]: ++++ (>= 70% = ++++)

RAD54B-001 (SLYKGLLSV; listed as Homo sapiens)
in vitro immunogenicity: donors [2]: ++++ (>= 70% = ++++) | in vitro immunogenicity: wells [2]: ++ (20%-49% = ++)

RLASYLDKV (listed as Homo sapiens) [SEQ ID No. 133]
in vitro immunogenicity: donors [2]: ++++ (>= 70% = ++++) | in vitro immunogenicity: wells [2]: ++ (20%-49% = ++)

RLDDLKMTV (listed as Homo sapiens) [SEQ ID No. 125]
in vitro immunogenicity: donors [2]: ++++ (>= 70% = ++++) | in vitro immunogenicity: wells [2]: + (<20% = +)

RLLDSVSRL (listed as Homo sapiens) [SEQ ID No. 121]
in vitro immunogenicity: donors [2]: ++++ (>= 70% = ++++) | in vitro immunogenicity: wells [2]: ++ (20%-49% = ++)

SERPINB3-001 (KLFGEKTYL)
in vitro immunogenicity: donors [2]: +++ (50%-69% = +++) | in vitro immunogenicity: wells [2]: + (<20% = +)

SF3B3-001 (ELDRTPPEV; listed as Homo sapiens)
in vitro immunogenicity: donors [2]: ++++ (>= 70% = ++++) | in vitro immunogenicity: wells [2]: ++ (20%-49% = ++)

SILEHQIQV (listed as Homo sapiens) [SEQ ID No. 106]
in vitro immunogenicity: donors [2]: + (<20% = +) | in vitro immunogenicity: wells [2]: + (<20% = +)

SLQGSIMTV (listed as Homo sapiens) [SEQ ID No. 6]
in vitro immunogenicity: donors [2]: ++++ (>= 70% = ++++) | in vitro immunogenicity: wells [2]: ++ (20%-49% = ++)

SMYD3-001 (SLIEDLILL; listed as Homo sapiens)
in vitro immunogenicity: donors [2]: ++ (20%-49% = ++) | in vitro immunogenicity: wells [2]: + (<20% = +)

SNRNP20-001 (GLIEIISNA; listed as Homo sapiens)
in vitro immunogenicity: donors [2]: ++++ (>= 70% = ++++) | in vitro immunogenicity: wells [2]: ++ (20%-49% = ++)

TACC3-001 (KLVEFDFLGA; listed as Homo sapiens)
in vitro immunogenicity: donors [2]: +++ (50%-69% = +++) | in vitro immunogenicity: wells [2]: + (<20% = +)

TGFBI-001 (ALFVRLLALA; listed as Homo sapiens)
in vitro immunogenicity: donors [2]: ++++ (>= 70% = ++++) | in vitro immunogenicity: wells [2]: ++ (20%-49% = ++)

TLFPVRLLV (listed as Homo sapiens) [SEQ ID No. 97]
in vitro immunogenicity: donors [2]: ++++ (>= 70% = ++++) | in vitro immunogenicity: wells [2]: +++ (50%-69% = +++)

TLLDFINAV (listed as Homo sapiens) [SEQ ID No. 108]
in vitro immunogenicity: donors [2]: +++ (50%-69% = +++) | in vitro immunogenicity: wells [2]: + (<20% = +)

TLYPHTSQV (listed as Homo sapiens) [SEQ ID No. 140]
in vitro immunogenicity: donors [2]: ++++ (>= 70% = ++++) | in vitro immunogenicity: wells [2]: ++ (20%-49% = ++)

TMEM43-001 (KLLSDPNYGV; listed as Homo sapiens)
in vitro immunogenicity: donors [2]: ++++ (>= 70% = ++++) | in vitro immunogenicity: wells [2]: + (<20% = +)

TNC-001 (AMTQLLAGV; listed as Homo sapiens)
in vitro immunogenicity: donors [2]: ++ (20%-49% = ++) | in vitro immunogenicity: wells [2]: + (<20% = +)

UBE2S-001 (ALNEEAGRLLL; listed as Homo sapiens)
in vitro immunogenicity: donors [2]: ++++ (>= 70% = ++++) | in vitro immunogenicity: wells [2]: + (<20% = +)

VLLPVEVATHYL (listed as Homo sapiens) [SEQ ID No. 142]
in vitro immunogenicity: donors [2]: ++ (20%-49% = ++) | in vitro immunogenicity: wells [2]: + (<20% = +)

VLTSDSPAL (listed as Homo sapiens) [SEQ ID No. 19]
in vitro immunogenicity: donors [2]: ++++ (>= 70% = ++++) | in vitro immunogenicity: wells [2]: + (<20% = +)

WNT5A-001 (AMSSKFFLV; listed as Homo sapiens)
in vitro immunogenicity: donors [2]: ++++ (>= 70% = ++++) | in vitro immunogenicity: wells [2]: ++ (20%-49% = ++)

YLNVQVKEL (listed as Homo sapiens) [SEQ ID No. 11]
in vitro immunogenicity: donors [2]: ++++ (>= 70% = ++++) | in vitro immunogenicity: wells [2]: + (<20% = +)

YVYQNNIYL (listed as Homo sapiens) [SEQ ID No. 115]
in vitro immunogenicity: donors [2]: ++++ (>= 70% = ++++) | in vitro immunogenicity: wells [2]: + (<20% = +)
